Measured values from ChEMBL document CHEMBL5528067, “From Synergy to Monotherapy: Discovery of Novel 2,4,6-Trisubstituted Triazine Hydrazone Derivatives with Potent Antifungal Potency In Vitro and In Vivo” (J Med Chem, 2024).
In brackets after ≈: the same amount, converted by molar mass. Activity calls are given as the source filed them. No cut-off for these calls is given here.

Columns and labels:
Candida albicans [1] = test: Antibiofilm activity against Candida albicans SC5314 assessed as biofilm disruption at 32 microg/ml incubated for 24 hrs by XTT/menadione reduction assay relative to control; assay type: functional; design: scale not given: the % may be the effect or the level left; conditions: dose 32 µg/ml
[2] = Cytotoxicity against human HUVEC cells assessed as cell viability measured after 24 hrs by CCK-8 assay; assay type: toxicity, cell-based
[3] = Hemolytic activity in rabbit Red blood cell assessed as hemolysis rate at 64 microg/ml incubated for 1 hr; assay type: toxicity, cell-based, Oryctolagus cuniculus, Erythrocyte; conditions: red blood cells, at 64 µg/mL, read-out: Activity
Candida albicans [4] = test: Antifungal activity against FCZ-resistant Candida albicans 10231 assessed as growth inhibition measured after 48 hrs incubation by CLSI based micro-dilution broth method; assay type: functional
Candida albicans [5] = test: Effect on of BRG1 gene expression in Candida albicans SC5314 at 4 to 8 microg/ml by real time RT-PCR analysis; assay type: functional; conditions: dose 4-8 µg/ml
[6] = Volume of distribution at steady state in Sprague-Dawley rat at 2 mg/kg, iv measured upto 24 hrs by LC-MS/MS analysis; assay type: ADME, organism-based; conditions: in vivo, read-out: Vdss
Candida albicans [7] = test: Induction of cell wall component change in Candida albicans SC5314 assessed as swollen inner beta glucan layer at 4 microg/ml measured after 12 hrs by transmission electron microscopy; assay type: functional, organism-based; conditions: dose 4.0 µg/ml
Candida albicans [8] = test: Antifungal activity against FCZ-resistant Candida albicans SC5314 assessed as reduction in CFU at 0.5 to 2 microg/ml measured at 24 hrs incubation by time kill assay (reference value: 5 log10 CFU/ml); assay type: functional; conditions: dose 0.5-2 µg/ml
Candida albicans [9] = test: Suppression of EFG1 gene expression in Candida albicans SC5314 assessed as fold increase at 8 microg/ml by real time RT-PCR analysis relative to control; assay type: functional; conditions: dose 8.0 µg/ml
Candida albicans [10] = test: Suppression of BCR1 gene expression in Candida albicans SC5314 assessed as fold increase at 8 microg/ml by real time RT-PCR analysis relative to control; assay type: functional; conditions: dose 8.0 µg/ml
[11] = Metabolic stability in mouse liver microsomes assessed as intrinsic clearance measured per mg of protein upto 60 mins by LC-MS/MS analysis; assay type: ADME, Microsome; conditions: read-out: CLH
[12] = MRT (0 to t) in Sprague-Dawley rat at 2 mg/kg, iv measured upto 24 hrs by LC-MS/MS analysis; assay type: ADME, organism-based; conditions: in vivo
Candida albicans [13] = test: Antifungal activity against FCZ-resistant Candida albicans strain 904 assessed as growth inhibition measured after 48 hrs incubation by CLSI based micro-dilution broth method; assay type: functional
Cryptococcus neoformans = test: Antifungal activity against Cryptococcus neoformans 32609 assessed as growth inhibition measured after 48 hrs incubation by CLSI based micro-dilution broth method; assay type: functional
Candida albicans [14] = test: Effect on of UME6 gene expression in Candida albicans SC5314 at 4 to 8 microg/ml by real time RT-PCR analysis; assay type: functional; conditions: dose 4-8 µg/ml
Candida albicans [15] = test: Upregulation of SAP2 gene expression in Candida albicans SC5314 assessed as fold increase at 4 microg/ml by real time RT-PCR analysis relative to control; assay type: functional; conditions: dose 4.0 µg/ml
Candida albicans [16] = test: Synergistic antifungal activity against FCZ-resistant Candida albicans strain 901 assessed as fractional inhibitory concentration index measured after 48 hrs in presence of FCZ by CLSI based micro-dilution broth method; assay type: functional
Candida albicans [17] = test: Effect on ECE1 gene expression in Candida albicans SC5314 at 4 to 8 microg/ml by real time RT-PCR analysis; assay type: functional; conditions: dose 4-8 µg/ml
Candida albicans [18] = test: Induction of cell wall component change in Candida albicans SC5314 assessed as thinner mannan layer at 4 microg/ml measured after 12 hrs by transmission electron microscopy; assay type: functional, organism-based; conditions: dose 4.0 µg/ml

O=[N+]([O-])c1ccc(O)c(/C=N/Nc2nc(NCc3ccc(F)cc3)nc(NCc3ccc(F)cc3)n2)c1
Activity (Candida albicans [1]): <30% | IC50 at 24 h [2]: 41.4 µg/mL (≈ 81.7 µM) | hemolysis at 1 h, 64 microg/ml [3]: 4.92% | MIC80 (Candida albicans [4]): 16 µg/mL (≈ 31.6 µM) | Activity (Candida albicans [5]): inactive | Vd [6]: 1.08 L/kg | Activity (Candida albicans [7]): Active | Activity (Candida albicans [8]): 3.2 log10CFU/ml | fold change (FC) (Candida albicans [9]): 1.52 | fold change (FC) (Candida albicans [10]): 1.58 | microsomal CLint [11]: 24.9 µL/min/mg | MRT last at 24 h [12]: 45 min | MIC80 (Candida albicans [13]): 1 µg/mL (≈ 1.97 µM) | MIC80 (Cryptococcus neoformans): 1 µg/mL (≈ 1.97 µM) | Activity (Candida albicans [14]): inactive | fold change (FC) (Candida albicans [15]): 1.86 | fractional inhibitory concentration index (FICI) (Candida albicans [16]): 0.25 | Activity (Candida albicans [17]): inactive | Activity (Candida albicans [18]): Active
